Laboratory results taken from patent US12036022B2, “Transcutaneous organ function measurement” (MediBeacon Inc., priority 2008, dated 2024).

Assay: Half-life (renal excretion) after intravenous administration to rats
Conditions: rat, in vivo
Description: The chromatographically separated fractions F5 and F10 were derivatized with fluorescein isothiocyanate (FITC) to form FITC-F5 and FITC-F10. FITC-F10 was administered to rats intravenously. The interstitial fluorescence of the FITC measured at an excitation wavelength of 485-520 nm was determined. The fluorescence in the serum was measured as a control.

sinistrin
half-life: 25.02 ± 1.67 min
